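Grown in 96-well plates, cells were treated for 48 hours with each compound at five concentrations. Insufficient inhibition: endpoint recorded as highest concentration tested. Abbreviation: GI50, concentration required for 50% inhibition of growth.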 The source made the active and inactive calls. Cut-off read from the data, not from the text of the source: active = GI50 up to about 1.1 µM and inactive = higher.
Experiments:
Assay in all cases: inhibition of tumour cell growth, NCI panel, 48 h
A498 = system: A498
A549 = system: A549
BT-549 = system: BT-549
CAKI-1 = system: CAKI-1
COLO 205 = system: COLO 205
EKVX = system: EKVX
HCT-116 = system: HCT-116
HOP-62 = system: HOP-62
HT-29 = system: HT-29
Hs-578T = system: Hs-578T
IGROV-1 = system: IGROV-1
KM12 = system: KM12
LOX IMVI = system: LOX IMVI
M14 = system: M14
MDA-MB-435 = system: MDA-MB-435
MDA-N = system: MDA-N
NCI-H226 = system: NCI-H226
NCI/ADR-RES = system: NCI/ADR-RES
OVCAR-3 = system: OVCAR-3
OVCAR-4 = system: OVCAR-4
OVCAR-5 = system: OVCAR-5
OVCAR-8 = system: OVCAR-8
RXF 393 = system: RXF 393
SF-268 = system: SF-268
SK-MEL-28 = system: SK-MEL-28
SK-MEL-5 = system: SK-MEL-5
SK-OV-3 = system: SK-OV-3
SNB-19 = system: SNB-19
U-251 = system: U-251
UO-31 = system: UO-31
786-0 = system: 786-0
ACHN = system: ACHN
DU-145 = system: DU-145
HCC 2998 = system: HCC 2998
HCT-15 = system: HCT-15
HL-60 = system: HL-60
HOP-92 = system: HOP-92
K562 = system: K562
MCF7 = system: MCF7
MDA-MB-231 = system: MDA-MB-231
MOLT-4 = system: MOLT-4
Malme-3M = system: Malme-3M
NCI-H23 = system: NCI-H23
NCI-H460 = system: NCI-H460
NCI-H522 = system: NCI-H522
PC-3 = system: PC-3
RPMI-8226 = system: RPMI-8226
SF-295 = system: SF-295
SF-539 = system: SF-539
SK-MEL-2 = system: SK-MEL-2
SN12C = system: SN12C
SR = system: SR
SW-620 = system: SW-620
TK-10 = system: TK-10
UACC-257 = system: UACC-257
UACC-62 = system: UACC-62
SNB-75 = system: SNB-75

Measured: GI50

CCN(CC)CCNc1n[n+]([O-])c2cc([N+](=O)[O-])ccc2[n+]1[O-]
inactive: A498 1.9 µM | BT-549 1.19 µM | EKVX 1.94 µM | Hs-578T 3.25 µM | NCI-H226 1.83 µM | OVCAR-5 2.04 µM | SK-MEL-28 3.41 µM | SNB-19 1.19 µM | UO-31 1.84 µM
active: A549 0.454 µM | CAKI-1 0.205 µM | COLO 205 0.326 µM | HCT-116 0.3 µM | HOP-62 0.434 µM | HT-29 0.197 µM | IGROV-1 0.116 µM | KM12 0.504 µM | LOX IMVI 0.444 µM | M14 0.377 µM | MDA-MB-435 0.847 µM | MDA-N 0.452 µM | NCI/ADR-RES 0.979 µM | OVCAR-3 0.865 µM | OVCAR-4 1 µM | OVCAR-8 0.283 µM | RXF 393 0.809 µM | SF-268 0.568 µM | SK-MEL-5 0.429 µM | SK-OV-3 0.687 µM | U-251 0.603 µM

C/C(NC(=O)c1ccccc1)=C(/C(=O)c1ccccc1)[C@@H]1OC(C)(C)O[C@@H]1[C@H]1COC(C)(C)O1
inactive: 786-0 18.3 µM | A498 86.1 µM | A549 29.9 µM | ACHN 67.3 µM | BT-549 25.8 µM | CAKI-1 29.3 µM | COLO 205 22.3 µM | DU-145 44.7 µM | EKVX 16.4 µM | HCC 2998 23.9 µM | HCT-116 19.5 µM | HL-60 16 µM | HOP-62 33.1 µM | HOP-92 19.4 µM | HT-29 27 µM | Hs-578T 27 µM | IGROV-1 13.2 µM | K562 20.9 µM | KM12 28.6 µM | LOX IMVI 19.9 µM | M14 30.8 µM | MCF7 40.8 µM | MDA-MB-231 23.7 µM | MDA-MB-435 19.5 µM | MDA-N 18.6 µM | MOLT-4 15.5 µM | Malme-3M 37.6 µM | NCI-H226 33 µM | NCI-H23 22.9 µM | NCI-H460 20.7 µM | NCI-H522 17.6 µM | NCI/ADR-RES 27.7 µM | OVCAR-3 32.9 µM | OVCAR-4 27.6 µM | OVCAR-5 34.4 µM | OVCAR-8 29.2 µM | PC-3 30.4 µM | RPMI-8226 14.9 µM | RXF 393 30.2 µM | SF-268 35.6 µM | SF-295 30.9 µM | SF-539 54 µM | SK-MEL-28 52.4 µM | SK-MEL-2 23.3 µM | SK-MEL-5 16.3 µM | SN12C 25.2 µM | SNB-19 46.2 µM | SR 19.5 µM | SW-620 20.3 µM | TK-10 77.6 µM | U-251 30.9 µM | UACC-257 30.8 µM | UACC-62 39.4 µM | UO-31 15.5 µM
32.8 µM: HCT-15

S=C(/N=c1\sc(Nc2ccc(Cl)cc2)nc2sc3c(c12)CCN(N1CCc2c(sc4nc(Nc5ccc(Cl)cc5)s/c(=N\C(=S)Nc5ccc(Cl)cc5)c24)C1)C3)Nc1ccc(Cl)cc1
inactive: 786-0 18 µM | A549 55.2 µM | ACHN 35.1 µM | BT-549 > 100 µM | COLO 205 57.9 µM | DU-145 25.4 µM | EKVX 61.7 µM | HCT-116 17.9 µM | HOP-62 36.1 µM | HT-29 19 µM | Hs-578T > 100 µM | IGROV-1 35.7 µM | M14 60 µM | MCF7 40.6 µM | MDA-MB-231 18.6 µM | MDA-N 17 µM | MOLT-4 67 µM | Malme-3M > 100 µM | NCI-H226 78.2 µM | NCI-H23 53.7 µM | NCI-H460 33.8 µM | NCI-H522 96.2 µM | NCI/ADR-RES 48 µM | OVCAR-3 42.3 µM | OVCAR-5 26.7 µM | OVCAR-8 43.1 µM | PC-3 30.3 µM | RXF 393 18.9 µM | SF-268 > 100 µM | SF-295 38.7 µM | SF-539 17.9 µM | SK-MEL-28 38.2 µM | SK-MEL-2 23.4 µM | SK-OV-3 27.7 µM | SN12C 19.2 µM | SNB-19 55.2 µM | SNB-75 26.7 µM | SW-620 38.8 µM | TK-10 44.6 µM | U-251 25.1 µM | UACC-257 43.5 µM | UACC-62 22.4 µM | UO-31 62.1 µM
42.2 µM: HCT-15

From ChEMBL document CHEMBL1201862, “PubChem BioAssay data set” (2004)
